Experimental data: patent US20200405752A1, “ANTITUMOR AGENT, ANTITUMOR EFFECT ENHANCER, AND ANTITUMOR KIT” (FUJIFILM Corporation, priority 2018, published 2020)

Tested on: human cholangiocarcinoma-derived cell line HuCC-T1
Test: Cell viability (CellTiter Glo) of HuCC-T1 in combination with cisplatin
Format: cell-based
Details: for viability at 0.0015 µM / viability at 0.0046 µM / viability at 0.0137 µM / viability at 0.0412 µM / viability at 0.1235 µM / viability at 0.3704 µM / viability at 1.1111 µM / viability at 3.3333 µM / viability at 10 µM / IC50: Homo sapiens; for viability at 0.0015 µM / viability at 0.0046 µM / viability at 0.0137 µM / viability at 0.0412 µM / viability at 0.1235 µM / viability at 0.3704 µM / viability at 1.1111 µM / viability at 3.3333 µM / viability at 10 µM: HuCCT-1, 72 h, with cisplatin 10 μmol/L, 3 days; for viability at 0.0015 µM: test substance 1.5 nM; for viability at 0.0046 µM: test substance 4.6 nM; for viability at 0.0137 µM: test substance 13.7 nM; for viability at 0.0412 µM: test substance 41.2 nM; for viability at 0.1235 µM: test substance 123.5 nM; for viability at 0.3704 µM: test substance 370.4 nM; for viability at 1.1111 µM: test substance 1111.1 nM; for viability at 3.3333 µM: test substance 3333.3 nM; for viability at 10 µM: test substance 10000.0 nM; for IC50: HuCCT-1, used in combination with cisplatin (10 μmol/L, Table 8); for CI: combination with cisplatin
Text: On the combinational effect of the embodiment of the invention, the results of evaluation using a combination index (CI) which is a quantitative index of the combinational effect are shown. The CI can be calculated by the following equation according to Cancer Research, 2010, Vol. 70, pp. 440 to 446.
That is, in a case where the drugs to be used in combination are drug 1 and drug 2, the CI at a certain drug concentration is
CI={(cell viability in case of using drug 1 and drug 2 in combination)/100}/{[(cell viability in case of using drug 1)/100]×[(cell viability in case of using drug 2)/100]}
Evaluation of antitumor activity against human cholangiocarcinoma-derived cell line HuCC-T1 in combination with cisplatin
Furthermore, the antitumor activity against the human cholangiocarcinoma-derived cell line HuCC-T1 in combination with cisplatin was evaluated in the same manner as in Test Example 1.
Gemcitabine, cisplatin, and methanesulfonate of Compound A were used as test substances.
Gemcitabine hydrochloride (manufactured by Plantex Co., Ltd.) dissolved in DMSO was used as gemcitabine. Cisplatin (Cat. #039-20091, manufactured by Wako Pure Chemical Industries, Ltd.) dissolved in serum-free RPMI-1640 medium (Cat. #11875-119, manufactured by Thermo Fisher Scientific Inc.) was used as cisplatin.
Human cholangiocarcinoma cell line HuCC-T1 cells were subcultured in RPMI-1640 medium supplemented with 10% serum (Cat. #10437-028, manufactured by Thermo Fisher Scientific Inc.). During this test, all cell cultures were carried out in a CO2 incubator (set to 37° C. and 5% CO2, saturated with water vapor). The culture was diluted with a 10% serum-supplemented medium to a cell density of 15000 cells/well/100 μL and the cells were seeded on a 96-well plate. On the next day, the culture supernatant of each well was discarded, followed by washing twice with 150 μL of serum-free medium, and 100 μL of serum-free medium was added thereto, followed by culturing for 3 days.
The methanesulfonate of Compound A and gemcitabine were dissolved in DMSO to prepare […] DMSO solutions thereof. The thus-prepared DMSO solutions were diluted sequentially with DMSO to prepare DMSO solutions having a final treatment concentration of 1000-fold dilution. Cisplatin was dissolved in serum-free medium to prepare a cisplatin solution 60 μmol/L. The DMSO diluted solutions of Compound A and gemcitabine were diluted with the cisplatin solution (60 μmol/L) to prepare treatment liquids having a final treatment concentration of 6-fold dilution. Compound A and gemcitabine were used with a maximum concentration of 10 μmol/L at a common ratio of 1/3 and 9 concentrations in combination with cisplatin.
20 μL of Compound A or gemcitabine diluted with the cisplatin solution (60 μmol/L) was added to each well. In addition, a group in which only a solvent containing no drug was added to wells in which cells were seeded (positive control), and a group in which only a solvent containing no drug was added to wells containing only a medium (negative control) were provided. All groups were set to n=3 well.
The cells were cultured for 3 days after the addition of the drug, and the cell viability was evaluated using a CellTiter Glo (registered trademark) Reagent (Cat. #G7570, manufactured by Promega Corporation) with the intracellular ATP level as an index. The concentration that inhibits cell viability by 50% (IC50 value) was calculated using XLFit software Ver.3 (registered trademark, manufactured by CTC Laboratory Systems Corporation).
The cell viability of each well was determined with the luminescence signal level of the negative control being 0% cell viability and the luminescence signal level of the positive control being 100% cell viability. The average value and standard deviation of the cell viability of each treatment group were calculated to prepare Table 8.

SMILES | viability at 0.0015 µM [%] | viability at 0.0046 µM [%] | viability at 0.0137 µM [%] | viability at 0.0412 µM [%] | viability at 0.1235 µM [%] | viability at 0.3704 µM [%] | viability at 1.1111 µM [%] | viability at 3.3333 µM [%] | viability at 10 µM [%] | IC50 [nM] | CI
Nc1ccn([C@@H]2S[C@H](CO)[C@@H](O)[C@@H]2F)c(=O)n1 [Compound A, 1-(2-deoxy-2-fluoro-4-thio-β-D-arabinofuranosyl)cytosine] | 117 | 114 | 110 | 96 | 66 | 44 | 40 | 36 | 34 | 261 | 0.34
Nc1ccn([C@@H]2O[C@H](CO)[C@@H](O)C2(F)F)c(=O)n1 [Gemcitabine] | 114 | 113 | 116 | 113 | 116 | 113 | 103 | 83 | 56 | ≥ 10000 | 0.90
